Publication PMC10714399, “Open Source Antibiotics: Simple Diarylimidazoles Are Potent against Methicillin-Resistant Staphylococcus aureus” (ACS Infectious Diseases, 2023)
Values after ≈ are worked out from the molar mass of the structure shown. Read-outs that look alike come from different tables or passages of the source.

Legend:
[1] = Aqueous solubility; format: physicochemical; conditions: thermodynamic from solid; read-out: Aqueous Solubility
[2] = system: Enterococcus faecalis ATCC 51299 (vanA-positive; vancomycin-resistant); assay: In vitro antibacterial activity, MIC (UCL), VRE; format: cell-based; conditions: for MIC: read-out: VRE MIC
Method in brief: (§1)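 Broth microdilution MIC in isosensitest broth; inoculum from overnight tryptone soya agar culture suspended in PBS to A600 0.1 (~1 × 10^8 CFU/mL), then diluted 1:100. Compounds tested as 2-fold series from 32 to 0.03 μg/mL, DMSO at most 2%; vancomycin as quality control.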

[3] = system: S. aureus ATCC 25923 (methicillin-susceptible); assay: In vitro antibacterial activity, MIC (UCL), MSSA; format: cell-based, Staphylococcus aureus; conditions: for MIC: Staphylococcus aureus, read-out: MSSA MIC
Method in brief: as §1

[4] = system: Staphylococcus aureus NCTC 13373 (mecA-positive; methicillin-resistant); assay: In vitro antibacterial activity, MIC (UCL School of Pharmacy assay), MRSA; format: cell-based; conditions: for MIC: Staphylococcus aureus, read-out: MRSA MIC
Method in brief: as §1

[5] = HEK293 toxicity, 96-well dose-response (UCL; MTT or resazurin, with or without recovery); format: cell-based, human; conditions: human, HEK293 cells; 32 μg/mL; read-out: spread of Dmax values comparing recovery and non-recovery conditions
Experimental: (§2) The importance of balancing potency vs MRSA and cytotoxicity led us to examine a subset of compounds more thoroughly for toxicity against human embryonic kidney cell line HEK293. […] Dmax is a parameter that quantifies toxicity at the highest tested concentration (32 μg/mL for all compounds), calculated as reciprocal percentage of viable cells (100 – viability%), where cells either were allowed to recover or viability was measured immediately after treatment. […] Our efforts focused on trying to replicate the original toxicity experiments (by CO-ADD) with tamoxifen using a protocol modified for use with 96-well plates. Given the variability of protocols and results in the literature,[28] it was important to compare with a standard protocol we have reliably used in our own laboratories.[29]−[33] […] Truly “non-toxic” compounds might be expected to show Dmax < 50% for all experiment variations, e.g., 861. […] A large spread of Dmax values comparing recovery and non-recovery conditions larger than 20% is perhaps indicative of a mechanism of toxicity that persists beyond exposure, i.e., cytotoxic compounds that continue to induce toxicity as cells recover and restart dividing, for example, compounds 865, 870, 871, 980, and 981. […] This variability could be driven by interference of the compounds with the fluorescence readout or resorufin build-up as previously described.[27]
(§3) HEK293 cells (ATCC, UK) at passage 32 were a kind gift from Dr. Ben Allsop from the Translational Research Office at University College London. Cells were tested for mycoplasma using a MycoAlert Detection Kit (Lonza, Switzerland) as per manufacturer instructions, frozen stocks were stored in liquid nitrogen, and cells were re-tested whenever a new aliquot was thawed.
(§4) Cells were maintained in DMEM (Sigma-Aldrich, UK) supplemented with 10% heat-inactivated FBS (Sigma-Aldrich, UK), 1% GlutaMax (ThermoFisher, UK), and 1% sodium pyruvate (Lonza, UK) without antibiotics in an incubator at 37 °C and 5% CO2. Media was changed every 2 days, and cells were passaged every 3–4 days at a subcultivation ratio of 1:10, by detaching the cells with phenol-free TrypLE Express (ThermoFisher, UK), after washing with HBSS Ca^2+/Mg^2+ (ThermoFisher, UK). Up to 55 passages were used throughout the experiments.
(§5) (a) Cell seeding: At subculture, a dilute solution of cells was counted using Trypan Blue (Sigma-Aldrich, UK) and a hemocytometer. Cells were further diluted to 7000 or 50 000 cells/mL for experiments.
(§6) For recovery experiments, 700 cells (100 μL) were seeded in 96-well plates and incubated for 48 h while cells reached exponential phase.
(§7) For non-recovery experiments, 5000 cells (100 μL) were seeded in 96-well plates and incubated for 48 h while cells reached confluence. This is the same number of cells as per the CO-ADD protocol where 384-well plates were used, but we extended the growth time to 48 h to produce a similar confluency.
(§8) Stock solutions were diluted 100 times (to 1% DMSO) to 32 μg/mL in full medium (vortexed briefly) and then serially diluted using a digital pipet (Explorer, Eppendorf, Germany) at a dilution factor of 2 to a final concentration of […].
(§9) (c) Dosing experiments: At the specified time after seeding, media was removed from cells, cells were washed with HBSS Ca^2+/Mg^2+ (100 μL), and 100 μL of diluted compounds were added as per Supporting Information - Biology, Figure S4, and incubated for 24 h.
(§10) After treatment, solutions were removed, and cells were washed with HBSS Ca^2+/Mg^2+. For non-recovery experiments, viability was determined immediately as described below.
(§11) For recovery experiments, fresh media was added to plates (100 μL) and cells were returned to the incubator for another 72 h, after which viability was recorded as described below.
(§12) i. MTT assay: 3-[4,5-Dimethylthiazol-2-yl]-2,5-diphenyltetrazolium bromide (MTT) (Sigma-Aldrich, UK) was dissolved in sterile PBS at 5 mg/mL with sonication (20 min), protected from light. […]

[6] = Human plasma protein binding (PPB); format: in vitro ADME; conditions: human, plasma; read-out: Human PPB (converted)
[7] = system: HEK293 cells; assay: HEK293 toxicity, 96-well dose-response (UCL; MTT or resazurin, with or without recovery); format: cell-based, human; conditions: for spread of Dmax values comparing recovery and non-recovery conditions: 32 μg/mL
Experimental: as §2, §3, §4, §5, §6, §7, §8, §9, §10, §11, §12

[8] = system: MRC-5SV2 (human lung fibroblast cell line); assay: Toxicity against MRC-5SV2; format: cell-based
Experimental: (§13) ADME and toxicity for compounds were measured according to procedures outlined in the manuscript submitted in parallel to this one;2 other procedures were used for those compounds analysed by Monash University (in vitro ADME) or UCL (toxicity), both described in the main

[9] = system: PMM (primary mouse macrophages); assay: Toxicity against PMM; format: cell-based
Experimental: as §13

[10] = Rat hepatocyte intrinsic clearance; format: in vitro ADME; conditions: rat, hepatocytes; Figure 4; read-out: Rat Hep CLint

Structure (SMILES) | solubility [1] | MIC [2] | MIC [3] | MIC ([4]; 16 h) | MIC [4] | fraction unbound [6] | VRE MIC [2] | hepatocyte CLint [10] | MSSA MIC [3] | MRSA MIC [4] | Dmax spread between recovery and non-recovery conditions at 24 h, 32 μg/mL [5] | activity against MRSA, in words [4] | HEK293 toxicity classification, in words [7] | spread of Dmax values comparing recovery and non-recovery conditions [7] | MRC5 TC50 [8] | PMM TC50 [9]
Cc1ccc(-c2c(-c3ccccn3)nc3n2CCC3)cc1 [compound 865] | 32 µM (≈ 8.81 µg/mL) | 16 µg/mL (≈ 58.1 µM) | 1 µg/mL (≈ 3.63 µM) | 4 µg/mL (≈ 14.5 µM) | 4 µg/mL (≈ 14.5 µM) | 0.08 |  |  |  |  | > 20% |  |  |  |  | 
c1ccc(-c2nc3n(c2-c2ccc4occc4c2)CCC3)cc1 [compound 869] |  | > 32 µg/mL |  |  | > 32 µg/mL |  |  |  |  |  |  | inactive | least toxic | small difference |  | 
COc1ccc2nc(-c3ccccn3)c(N(C)c3ccc(F)cc3)n2c1 [compound 980] |  | 8 µg/mL (≈ 23 µM) | 4 µg/mL (≈ 11.5 µM) |  | 4 µg/mL (≈ 11.5 µM) |  |  |  |  |  | > 20% |  |  |  | 0.7 µg/mL | 2.8 µg/mL
CCN(c1ccc(F)cc1)c1c(-c2ccccn2)nc2ccccn12 [compound 981] |  | 8 µg/mL (≈ 24.1 µM) | 2 µg/mL (≈ 6.02 µM) |  | 2 µg/mL (≈ 6.02 µM) |  |  |  |  |  | > 20% |  |  |  | 1.6 µg/mL | 2.7 µg/mL
CC(C)CN(c1ccc(F)cc1)c1c(-c2ccccn2)nc2ccccn12 [compound 983] | 8 µM (≈ 2.88 µg/mL) | 8 µg/mL (≈ 22.2 µM) | 4 µg/mL (≈ 11.1 µM) | 2 µg/mL (≈ 5.55 µM) | 2 µg/mL (≈ 5.55 µM) | 0.004 |  | 234 µL/min/1e6 cells |  |  |  |  |  | small difference | 19.5 µg/mL | 8.3 µg/mL
Fc1ccc(Nc2c(-c3ccccn3)nc3sccn23)cc1 [compound 984] |  |  |  |  |  |  | 8 µg/mL |  | 4 µg/mL | 8 µg/mL |  |  |  | small difference | 2.0 µg/mL | 9.9 µg/mL

Continued by falling MIC [2], values first:

solubility [1] | MIC [2] | MIC [3] | MIC ([4]; 16 h) | MIC [4] | fraction unbound [6] | VRE MIC [2] | hepatocyte CLint [10] | MSSA MIC [3] | MRSA MIC [4] | Structure (SMILES) | Dmax spread between recovery and non-recovery conditions at 24 h, 32 μg/mL [5] | activity against MRSA, in words [4] | HEK293 toxicity classification, in words [7] | spread of Dmax values comparing recovery and non-recovery conditions [7] | MRC5 TC50 [8] | PMM TC50 [9]
 | 8 µg/mL (≈ 24.4 µM) |  |  | 4 µg/mL (≈ 12.2 µM) |  |  |  |  |  | c1ccc(-c2nc3ccccn3c2-c2ccc3sccc3c2)nc1 [compound 871] | > 20% |  |  |  |  | 
 | 4 µg/mL (≈ 11.2 µM) | 2 µg/mL (≈ 5.58 µM) |  | 2 µg/mL (≈ 5.58 µM) |  | 4 µg/mL |  |  |  | Fc1ccc(N(CC2CC2)c2c(-c3ccccn3)nc3ccccn23)cc1 [compound 979] |  |  |  | small difference | 2.8 µg/mL | 1.4 µg/mL
3 µM (≈ 1.04 µg/mL) | 4 µg/mL (≈ 11.5 µM) | 2 µg/mL (≈ 5.77 µM) | 2 µg/mL (≈ 5.77 µM) | 2 µg/mL (≈ 5.77 µM) | 0.007 | 4 µg/mL | 108 µL/min/1e6 cells |  |  | CCCN(c1ccc(F)cc1)c1c(-c2ccccn2)nc2ccccn12 [compound 982] |  |  |  | small difference | 1.5 µg/mL | 0.7 µg/mL
